Data: publication PMC7979765, “trans-Translation inhibitors bind to a novel site on the ribosome and clear Neisseria gonorrhoeae in vivo” (Nature Communications, 2021)
In brackets after ≈: the same amount, converted by molar mass. Several values for one entry are separate records, joined by “and”; a condition that tells them apart may be missing. Identical values can stand only once. Like-named read-outs stand apart in the source and are kept apart here.

Legend:
[1] = test system: Acinetobacter baumannii; assay: MIC, microbroth dilution; format: cell-based
[2] = biological target: T1, Cholecystokinin CKK1 (CCKA) (Homo sapiens, UniProt P32238); assay: Receptor Profiling 218030; format: binding
T1 construct: purchased Eurofins Discovery Services (Panlabs safety panel)
Protocol: (§1) Several in vitro selectivity assays were performed at Eurofins Discovery Services using established methods and controls that behaved as expected (Supplementary Tables 5 and 6). […] For receptor panel profiling, MBX-4132 was evaluated at 10 μM and activity of >50% (agonist or antagonist; note that negative % inhibition indicates agonism) was scored as active.

[3] = test system: Staphylococcus aureus; assay: MIC, microbroth dilution; format: cell-based
[4] = biological target: T2, Cholinesterase, Acetyl, ACES (Homo sapiens, UniProt P22303); assay: Receptor Profiling 104010; format: biochemical
T2 construct: Eurofins Discovery Services (contract assay) 104010
Protocol: as §1

[5] = biological target: T3, KCNQ1/mink (Homo sapiens, UniProt P51787); assay: cell-based
T3 construct: Eurofins Discovery Services (contract assay) CYL8007QP2DR
Protocol: as §1

[6] = biological target: T4, Cav1.2 (Homo sapiens, UniProt Q13936); assay: cell-based
T4 construct: Eurofins Discovery Services (contract assay) CYL8051QP2DR
T4 sequence (Q13936 whole entry): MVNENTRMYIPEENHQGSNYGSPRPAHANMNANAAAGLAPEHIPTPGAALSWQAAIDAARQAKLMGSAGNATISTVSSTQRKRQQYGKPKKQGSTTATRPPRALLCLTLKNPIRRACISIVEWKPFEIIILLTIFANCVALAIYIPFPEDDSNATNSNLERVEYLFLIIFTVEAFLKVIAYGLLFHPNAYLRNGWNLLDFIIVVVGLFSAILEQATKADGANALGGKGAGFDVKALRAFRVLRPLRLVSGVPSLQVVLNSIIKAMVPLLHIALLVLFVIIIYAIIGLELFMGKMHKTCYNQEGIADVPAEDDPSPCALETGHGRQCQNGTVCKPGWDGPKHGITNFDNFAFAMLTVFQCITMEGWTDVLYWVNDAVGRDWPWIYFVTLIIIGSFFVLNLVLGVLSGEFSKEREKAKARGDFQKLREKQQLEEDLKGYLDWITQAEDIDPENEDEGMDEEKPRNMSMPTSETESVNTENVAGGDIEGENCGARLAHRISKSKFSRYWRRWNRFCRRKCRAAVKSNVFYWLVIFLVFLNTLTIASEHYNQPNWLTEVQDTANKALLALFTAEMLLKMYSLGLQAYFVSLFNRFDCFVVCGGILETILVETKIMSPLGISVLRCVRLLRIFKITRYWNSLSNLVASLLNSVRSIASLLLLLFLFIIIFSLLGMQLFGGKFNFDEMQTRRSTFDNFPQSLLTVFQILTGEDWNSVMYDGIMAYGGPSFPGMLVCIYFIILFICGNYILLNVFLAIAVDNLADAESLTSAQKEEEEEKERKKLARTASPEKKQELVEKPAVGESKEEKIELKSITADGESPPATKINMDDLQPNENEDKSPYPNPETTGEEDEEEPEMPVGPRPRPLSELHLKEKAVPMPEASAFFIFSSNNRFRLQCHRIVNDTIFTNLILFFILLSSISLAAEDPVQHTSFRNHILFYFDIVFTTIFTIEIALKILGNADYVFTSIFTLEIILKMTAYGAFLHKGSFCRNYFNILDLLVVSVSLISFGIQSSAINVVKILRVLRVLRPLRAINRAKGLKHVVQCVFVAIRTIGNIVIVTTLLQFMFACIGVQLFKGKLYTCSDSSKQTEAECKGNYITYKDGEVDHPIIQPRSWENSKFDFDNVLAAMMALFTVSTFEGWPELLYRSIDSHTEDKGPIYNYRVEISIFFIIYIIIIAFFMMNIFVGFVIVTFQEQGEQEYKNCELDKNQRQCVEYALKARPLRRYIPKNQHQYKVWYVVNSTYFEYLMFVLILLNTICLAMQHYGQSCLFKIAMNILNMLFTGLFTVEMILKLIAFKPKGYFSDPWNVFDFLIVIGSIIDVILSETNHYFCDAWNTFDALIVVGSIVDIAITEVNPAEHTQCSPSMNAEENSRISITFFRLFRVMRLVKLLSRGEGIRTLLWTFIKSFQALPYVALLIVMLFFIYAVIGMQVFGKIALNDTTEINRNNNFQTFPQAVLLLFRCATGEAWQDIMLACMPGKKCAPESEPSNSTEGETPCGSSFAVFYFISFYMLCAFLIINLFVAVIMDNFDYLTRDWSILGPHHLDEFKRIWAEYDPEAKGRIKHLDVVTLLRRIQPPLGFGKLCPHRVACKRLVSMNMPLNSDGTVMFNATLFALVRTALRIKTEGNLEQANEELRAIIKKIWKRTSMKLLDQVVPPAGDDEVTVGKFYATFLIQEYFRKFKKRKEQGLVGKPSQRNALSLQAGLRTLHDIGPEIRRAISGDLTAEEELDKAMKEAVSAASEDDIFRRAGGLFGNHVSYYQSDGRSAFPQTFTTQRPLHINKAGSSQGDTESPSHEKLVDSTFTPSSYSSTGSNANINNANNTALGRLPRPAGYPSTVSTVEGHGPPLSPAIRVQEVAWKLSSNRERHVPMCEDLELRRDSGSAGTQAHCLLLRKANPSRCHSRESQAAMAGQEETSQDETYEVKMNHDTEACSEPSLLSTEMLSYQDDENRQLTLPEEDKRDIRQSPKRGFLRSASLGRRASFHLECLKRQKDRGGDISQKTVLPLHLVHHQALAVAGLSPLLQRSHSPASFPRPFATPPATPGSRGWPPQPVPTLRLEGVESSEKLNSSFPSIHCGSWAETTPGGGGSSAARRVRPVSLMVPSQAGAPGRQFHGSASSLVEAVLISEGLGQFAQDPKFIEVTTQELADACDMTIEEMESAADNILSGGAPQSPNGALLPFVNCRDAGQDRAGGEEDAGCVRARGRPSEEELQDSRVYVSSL
T4 sequence (Q08289 whole entry partner): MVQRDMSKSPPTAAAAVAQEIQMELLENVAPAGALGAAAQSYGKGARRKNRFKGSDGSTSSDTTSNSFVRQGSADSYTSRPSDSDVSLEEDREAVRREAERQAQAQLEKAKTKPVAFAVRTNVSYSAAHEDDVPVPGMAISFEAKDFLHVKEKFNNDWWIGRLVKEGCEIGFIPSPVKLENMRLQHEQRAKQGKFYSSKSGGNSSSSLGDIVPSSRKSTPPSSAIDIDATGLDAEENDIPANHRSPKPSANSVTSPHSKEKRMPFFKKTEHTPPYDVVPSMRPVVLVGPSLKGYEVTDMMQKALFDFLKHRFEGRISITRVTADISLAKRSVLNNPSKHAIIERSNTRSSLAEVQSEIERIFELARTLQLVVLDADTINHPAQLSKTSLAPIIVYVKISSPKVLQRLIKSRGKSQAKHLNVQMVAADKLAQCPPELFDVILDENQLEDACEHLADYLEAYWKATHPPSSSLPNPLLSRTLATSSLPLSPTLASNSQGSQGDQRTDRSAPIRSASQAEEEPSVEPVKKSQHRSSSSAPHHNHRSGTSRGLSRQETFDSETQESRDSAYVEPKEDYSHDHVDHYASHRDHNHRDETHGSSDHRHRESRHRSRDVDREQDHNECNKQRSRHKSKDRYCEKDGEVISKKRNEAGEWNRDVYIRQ
T4 sequence (P54289 25-946 partner limits assumed): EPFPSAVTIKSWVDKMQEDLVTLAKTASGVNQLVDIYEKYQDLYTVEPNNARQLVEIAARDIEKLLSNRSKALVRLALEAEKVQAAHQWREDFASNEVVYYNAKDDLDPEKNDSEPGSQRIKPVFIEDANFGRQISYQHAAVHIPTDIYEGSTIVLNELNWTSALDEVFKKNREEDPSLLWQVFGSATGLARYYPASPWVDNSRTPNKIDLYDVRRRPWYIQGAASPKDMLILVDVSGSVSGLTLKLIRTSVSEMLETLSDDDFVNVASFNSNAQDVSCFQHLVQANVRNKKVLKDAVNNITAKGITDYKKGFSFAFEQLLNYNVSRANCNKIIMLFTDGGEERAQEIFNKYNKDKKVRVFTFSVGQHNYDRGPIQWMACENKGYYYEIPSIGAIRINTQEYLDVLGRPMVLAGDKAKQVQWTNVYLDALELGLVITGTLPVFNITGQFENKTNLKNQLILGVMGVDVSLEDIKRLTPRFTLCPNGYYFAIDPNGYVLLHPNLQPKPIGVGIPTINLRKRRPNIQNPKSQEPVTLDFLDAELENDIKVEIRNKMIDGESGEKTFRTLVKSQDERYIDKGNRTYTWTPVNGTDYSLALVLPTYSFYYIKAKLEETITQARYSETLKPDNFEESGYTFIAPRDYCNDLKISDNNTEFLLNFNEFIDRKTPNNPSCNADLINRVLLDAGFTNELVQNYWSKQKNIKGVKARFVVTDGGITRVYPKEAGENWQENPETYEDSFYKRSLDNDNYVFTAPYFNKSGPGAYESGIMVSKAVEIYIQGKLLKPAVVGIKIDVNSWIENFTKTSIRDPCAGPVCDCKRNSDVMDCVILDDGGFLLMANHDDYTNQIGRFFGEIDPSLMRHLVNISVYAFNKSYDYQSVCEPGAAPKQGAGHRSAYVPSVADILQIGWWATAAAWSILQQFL
T4 sequence (P54289 947-1103 partner limits assumed): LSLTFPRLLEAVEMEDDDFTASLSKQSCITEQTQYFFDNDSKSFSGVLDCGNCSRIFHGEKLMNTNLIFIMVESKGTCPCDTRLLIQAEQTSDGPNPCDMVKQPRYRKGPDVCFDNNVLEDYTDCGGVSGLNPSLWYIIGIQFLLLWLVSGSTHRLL
Protocol: as §1

[7] = biological target: T5, Muscarinic M1 (Homo sapiens, UniProt P11229); assay: Receptor Profiling 252610; format: binding
T5 construct: purchased Eurofins Discovery Services (Panlabs safety panel)
T5 sequence (P11229 whole entry): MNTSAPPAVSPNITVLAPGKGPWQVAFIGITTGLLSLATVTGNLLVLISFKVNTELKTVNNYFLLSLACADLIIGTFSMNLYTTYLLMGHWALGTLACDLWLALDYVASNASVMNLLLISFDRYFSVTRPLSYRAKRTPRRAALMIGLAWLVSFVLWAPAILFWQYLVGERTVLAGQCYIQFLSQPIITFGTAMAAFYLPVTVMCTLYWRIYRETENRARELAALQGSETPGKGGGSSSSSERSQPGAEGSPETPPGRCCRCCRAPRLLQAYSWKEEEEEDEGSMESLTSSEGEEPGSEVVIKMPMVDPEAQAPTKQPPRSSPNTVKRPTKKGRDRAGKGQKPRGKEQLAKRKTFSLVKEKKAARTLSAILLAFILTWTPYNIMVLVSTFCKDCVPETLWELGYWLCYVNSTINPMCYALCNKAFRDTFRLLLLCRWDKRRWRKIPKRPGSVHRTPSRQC
Protocol: as §1

[8] = test system: GABAA, Flunitrazepam, Central; assay: Receptor Profiling 226600; format: binding, rat; conditions: 10 μM
Protocol: as §1

[9] = biological target: T6, Histamine H1 (Homo sapiens, UniProt P35367); assay: Receptor Profiling 239610; format: binding
T6 construct: purchased Eurofins Discovery Services (Panlabs safety panel)
T6 sequence (P35367 whole entry): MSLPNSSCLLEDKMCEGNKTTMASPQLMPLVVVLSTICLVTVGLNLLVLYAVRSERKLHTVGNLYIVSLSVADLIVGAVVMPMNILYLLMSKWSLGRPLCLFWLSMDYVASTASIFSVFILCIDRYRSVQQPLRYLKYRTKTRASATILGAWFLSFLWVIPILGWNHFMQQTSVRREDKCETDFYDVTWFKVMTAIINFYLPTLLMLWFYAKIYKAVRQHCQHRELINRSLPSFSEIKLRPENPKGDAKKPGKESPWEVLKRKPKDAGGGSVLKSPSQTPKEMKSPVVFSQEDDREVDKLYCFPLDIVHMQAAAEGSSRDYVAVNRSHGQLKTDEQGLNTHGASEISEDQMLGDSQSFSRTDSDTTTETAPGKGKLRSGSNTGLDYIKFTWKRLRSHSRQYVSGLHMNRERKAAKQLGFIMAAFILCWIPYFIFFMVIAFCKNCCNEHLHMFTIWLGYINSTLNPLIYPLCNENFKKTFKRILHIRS
Protocol: as §1

[10] = Mammalian cell cytotoxicity (CC50); format: cell-based, human; conditions: human, HeLa cells (ATCC CCL-2)
Protocol: (§2) The half maximal cytotoxic concentration (CC50) of each compound against HeLa cells (ATCC CCL-2) was measured as previously described. […] The mean values for each biological replicate were averaged, and the CC50 was determined using a 4-parameter nonlinear curve fitting algorithm (GraphPad Prism). The average of the CC50s from two biological replicates was calculated and reported.

[11] = test system: HeLa cells; assay: Mammalian cell cytotoxicity (CC50); format: cell-based, human; conditions: for NORMALIZED DATA (Fraction DMSO Control) / […] (Fraction DMSO Control): HeLa, per replicate
Protocol: as §2

[12] = mouse
[13] = Pharmacokinetic analyses in mice (PO suspension, IV, SC); format: in vivo, mouse
Protocol: Female CD-1 mice as above were fasted for 2 h prior, and 4 h after dosing. […] […], 3 mice from each group were euthanized by CO2 inhalation, blood was collected by cardiac puncture into K2EDTA collection tubes, and protein was precipitated and analysed by LC/MS-MS for plasma concentrations of MBX-4132. Data were analysed using WinNonLin.
[…] At 0.083, 0.5, 1, 4, 8 and 24 h post dose, blood was collected from 3 mice/group by tail vein or facial bleed into K2EDTA collection tubes, and protein was precipitated and analysed by LC/MS-MS for plasma concentrations of MBX-4132. Sampling was performed serially, with each mouse contributing sample at all time points. Data were analysed using WinNonLin.

[14] = test system: Klebsiella pneumoniae; assay: MIC, microbroth dilution; format: cell-based
[15] = HeLa cytotoxicity, value per replicate

Compound: O=C(Nc1nnc(-c2ccc(F)cc2)o1)N1CCc2ccccc2C1 [MBX-4132]
- MIC ([1]; Acinetobacter baumannii ATCC 19606, replicates): ≥34 mg/L
- MIC ([1]; Acinetobacter baumannii, ATCC19606, Acinetobacter baumannii ATCC 19606, replicates, read-out: MIC): ≥ 34 mg/L
- MIC ([1]; Acinetobacter baumannii, ATCC19606, strain ATCC 19606, read-out: MIC): ≥ 34 mg/L
- inhibition at 10 µM [2]: 66%
- MIC ([3]; Staphylococcus aureus ATCC 25923, replicates): 8.46 µg/mL (≈ 25 µM)
- MIC ([3]; Staphylococcus aureus ATCC 35556, replicates): 4.23 µg/mL (≈ 12.5 µM)
- MIC ([3]; Staphylococcus aureus BAA-1717, replicates): 1 µg/mL (≈ 2.96 µM)
- MIC ([3]; Staphylococcus aureus MRSA-1094, replicates): 2.11 µg/mL and 4.23 µg/mL
- MIC ([3]; Staphylococcus aureus MRSA-1234547263, replicates): 2.11 µg/mL and 4.23 µg/mL
- MIC ([3]; Staphylococcus aureus MSSA, replicates): 2.11 µg/mL and 4.23 µg/mL
- MIC ([3]; Staphylococcus aureus N315, NRS-70, replicates): 8.46 µg/mL (≈ 25 µM)
- MIC ([3]; Staphylococcus aureus NRS-77, replicates): 2.11 µg/mL and 4.23 µg/mL
- MIC ([3]; Staphylococcus aureus THC1516, replicates): 0.5 µg/ml (3×) and 1 µg/ml (2×)
- MIC ([3]; Staphylococcus aureus, ATCC25923, Staphylococcus aureus ATCC 25923, replicates, read-out: MIC): 4.23 µg/mL (≈ 12.5 µM)
- MIC ([3]; Staphylococcus aureus, ATCC25923, strain ATCC 25923, read-out: MIC): 6.3 µg/mL (≈ 18.6 µM)
- MIC ([3]; Staphylococcus aureus, ATCC35556, Staphylococcus aureus ATCC 35556, replicates, read-out: MIC): 4.23 µg/mL (≈ 12.5 µM)
- MIC ([3]; Staphylococcus aureus, ATCC35556, strain ATCC 35556, read-out: MIC): 4.2 µg/mL (≈ 12.4 µM)
- MIC ([3]; Staphylococcus aureus, BAA1717, Staphylococcus aureus BAA-1717, replicates, read-out: MIC): 1 µg/mL (≈ 2.96 µM)
- MIC ([3]; Staphylococcus aureus, BAA-1717 / MRSA, strain BAA-1717, MRSA, read-out: MIC): 1 µg/mL (≈ 2.96 µM)
- MIC ([3]; Staphylococcus aureus, MRSA / NRS 70, strain N315, NRS-70, MRSA, read-out: MIC): 6.3 µg/mL (≈ 18.6 µM)
- MIC ([3]; Staphylococcus aureus, MRSA, strain MRSA-1094, MRSA, read-out: MIC): 3.2 µg/mL (≈ 9.46 µM)
- MIC ([3]; Staphylococcus aureus, MRSA, strain MRSA-1234547263, MRSA, read-out: MIC): 3.2 µg/mL (≈ 9.46 µM)
- MIC ([3]; Staphylococcus aureus, MRSA, strain THC1516, MRSA, read-out: MIC): 1 µg/mL (≈ 2.96 µM)
- MIC ([3]; Staphylococcus aureus, MSSA, strain MSSA, read-out: MIC): 3.2 µg/mL (≈ 9.46 µM)
- MIC ([3]; Staphylococcus aureus, NRS70, Staphylococcus aureus N315, NRS-70, replicates, read-out: MIC): 4.23 µg/mL (≈ 12.5 µM)
- MIC ([3]; Staphylococcus aureus, NRS77, strain NRS-77, read-out: MIC): 3.2 µg/mL (≈ 9.46 µM)
- MIC ([3]; Staphylococcus aureus, Staphylococcus aureus THC1516, replicates, read-out: MIC): 0.5 µg/mL (≈ 1.48 µM)
- inhibition at 10 µM [4]: 6%
- IC50 [5]: > 30 µM
- IC50 [6]: > 30 µM
- inhibition at 10 µM [7]: -7%
- % inhibition [8]: 3%
- inhibition at 10 µM [9]: 11%
- CC50 [10, 15]: 22.2 µM
- CC50 ([10]; half-maximal cytotoxic concentration against HeLa cells): 45 µM
- CC50 [11, 15]: 40.1 µM and 36.3 µM and 20.1 µM and 22.1 µM and 22.6 µM
- NORMALIZED DATA (Fraction DMSO Control) ([11]; [CMPD] 0.78125 µM): 0.9968 Fraction DMSO Control and 1.046 Fraction DMSO Control and 1.033 Fraction DMSO Control and 0.9287 Fraction DMSO Control and 0.9308 Fraction DMSO Control and 0.9008 Fraction DMSO Control
- NORMALIZED DATA (Fraction DMSO Control) ([11]; [CMPD] 1.5625 µM): 0.97 Fraction DMSO Control and 0.9994 Fraction DMSO Control and 0.9978 Fraction DMSO Control and 0.9354 Fraction DMSO Control and 0.9201 Fraction DMSO Control and 0.9227 Fraction DMSO Control
- NORMALIZED DATA (Fraction DMSO Control) ([11]; [CMPD] 3.125 µM): 0.9272 Fraction DMSO Control and 0.9885 Fraction DMSO Control and 0.9744 Fraction DMSO Control and 0.9295 Fraction DMSO Control and 0.9174 Fraction DMSO Control and 0.8829 Fraction DMSO Control
- NORMALIZED DATA (Fraction DMSO Control) ([11]; [CMPD] 6.25 µM): 0.9057 Fraction DMSO Control and 0.9944 Fraction DMSO Control and 0.9769 Fraction DMSO Control and 0.8719 Fraction DMSO Control and 0.9166 Fraction DMSO Control and 0.9146 Fraction DMSO Control
- NORMALIZED DATA (Fraction DMSO Control) ([11]; [CMPD] 12.5 µM): 0.7347 Fraction DMSO Control and 0.9472 Fraction DMSO Control and 1.04 Fraction DMSO Control and 0.6999 Fraction DMSO Control and 0.7003 Fraction DMSO Control and 0.7354 Fraction DMSO Control
- NORMALIZED DATA (Fraction DMSO Control) ([11]; [CMPD] 25 µM): 0.4205 Fraction DMSO Control and 0.7028 Fraction DMSO Control and 0.4452 Fraction DMSO Control and 0.4899 Fraction DMSO Control and 0.486 Fraction DMSO Control
- […] (Fraction DMSO Control) ([11]; [CMPD] 25 µM): 0.7319 Fraction DMSO Control
- NORMALIZED DATA (Fraction DMSO Control) ([11]; [CMPD] 50 µM): 0.4043 Fraction DMSO Control and 0.3802 Fraction DMSO Control and 0.2112 Fraction DMSO Control and 0.1979 Fraction DMSO Control
- […] (Fraction DMSO Control) ([11]; [CMPD] 50 µM): 0.2642 Fraction DMSO Control and 0.1957 Fraction DMSO Control
- NORMALIZED DATA (Fraction DMSO Control) ([11]; [CMPD] 100 µM): 0.2429 Fraction DMSO Control and 0.2248 Fraction DMSO Control and 0.2297 Fraction DMSO Control
- […] (Fraction DMSO Control) ([11]; [CMPD] 100 µM): 0.1038 Fraction DMSO Control and 0.3131 Fraction DMSO Control and 0.2661 Fraction DMSO Control
- Murine serum stability (% remaining after 1 hr) [12]: 101%
- oral bioavailability (in words) ([13]; mice): highly orally bioavailable
- exposure in fasted vs fed mice (in words) ([13]; plasma at 1 and 4 h post dosing, formulation A): No significant variation in exposure
- MIC ([14]; Klebsiella pneumoniae ATCC 13883, replicates): ≥34 mg/L
- MIC ([14]; Klebsiella pneumoniae, ATCC13883, strain ATCC 13883, read-out: MIC): ≥ 34 mg/L
